US4027005A, “Diagnostic agents” (New England Nuclear Corporation, priority 1974, dated 1977)
Read-outs that look alike come from different tables or passages of the source.

What was measured:
[1] = cited from earlier work
[2] = Comparative one hour rat organ distribution and organ uptake contrast ratios; format: in vivo; details: i.v.; for Kidney/G.I. organ uptake contrast ratio / Kidney/liver organ uptake contrast ratio / Kidney/blood organ uptake contrast ratio: activity per gram; for Kidney/blood organ uptake contrast ratio: 60 min; for Blood, organ distribution / G.I., organ distribution / Kidney, organ distribution / Liver, organ distribution: decay corrected, average of at least two animals
Protocol: Each of the foregoing renal scanning agents is aseptically intravenously injected (0.25 ml containing about 3-5 mCi) into adult rats. One hour later the rats are sacrificed, and the blood collected, weighed and counted. The organs of interest, e.g. the kidney, the liver, and the gastrointestinal tract, are individually weighed and the radioactivity contained therein counted. The amount of radioactivity injected is determined by counting the radioactivity in the syringe before and after injection. The organ distribution values are reported as the percent of the activity injected which is observed in the organ, corrected for the radioactive decay of technetium. The organ uptake contrast ratios are determined by determining the relative activity contained per gram of the organs compared.

[3] = Acute toxicity in mice, intravenous; format: in vivo
[4] = Sub-acute toxicity in mice; format: in vivo; details: mice, 800, 400 and 80 mg/kg per day for 15 days
[5] = Sub-acute toxicity in dogs; format: in vivo; details: 19 mg/kg per day for 14 days
[6] = Distribution data in rats of the glucoheptonate agent; details: within one hour post injection
[7] = Urinary excretion in humans; details: within the first hour after injection, 60 min
[8] = tested on: infarcted myocardial tissue; experiment: Infarction tests: accumulation in infarcted myocardial tissue; format: in vivo, rat; details: for ratio B: activity per gram of infarcted tissue to activity per gram in the blood: 60 min
Protocol: In each case a myocardial infarct is produced in adult rats by surgery. In Example 9, doses of about 3-5 mCi each of the glucoheptonate and tetracycline agents respectively are injected three hours after infarct was induced. The animals are sacrificed one hour after injection and the heart removed. The infarcted tissue, which is visibly distinguishable from normal myocardial tissue, was excised, weighed and counted. The normal myocardial tissue was also weighed and its activity counted and the results are reported as the ratio of the activity per gram of the infarcted tissue to the activity per gram of the normal tissue (A), and the ratio of the activity per gram of the infarcted tissue to activity per gram in the blood (B). Example 10 reports similar results, the difference being that in that example the radionuclides were injected into the live rats eighteen hours after the infarct was induced, rather than three hours.

[9] = Example 9: rat, injected three hours after infarct, sacrificed one hour after injection
[10] = Example 10: rat, injected eighteen hours after infarct

| Compound | Kidney/G.I. organ uptake contrast ratio [2] | Kidney/liver organ uptake contrast ratio [2] | Kidney/blood organ uptake contrast ratio [2] | Blood, organ distribution [2] | G.I., organ distribution [2] | Kidney, organ distribution [2] | Liver, organ distribution [2] | also measured |
| --- | --- | --- | --- | --- | --- | --- | --- | --- |
| O=C(O)CNC(=O)c1ccccc1[131I] [131 I-iodohippuran] | – | – | – | – | – | – | – | accumulation, retention or elimination of prior agents (in words) ([1]; prior art): predominantly eliminated through active secretion by tubular cells |
| O=C(O)Cn1cc([131I])c(=O)c([131I])c1.OCCNCCO [131 I-iodopyracet] | – | – | – | – | – | – | – | accumulation, retention or elimination of prior agents (in words) ([1]; in vivo): simultaneous accumulation in surrounding tissue, especially the liver |
| O=C(O)[C@H](O)[C@@H](O)[C@H](O[C@@H]1O[C@H](CO)[C@H](O)[C@H](O)[C@H]1O)[C@H](O)CO [Example 2] | 57 | 102 | 82 | 1.8% of the activity inject | 6.2% of the activity inject | 23% of the activity inject | 1.3% of the activity inject | – |
| O=C(O)[C@H](O)[C@@H](O)[C@H](O)[C@H](O)CO [Example 5] | 55 | 50 | 40 | 2.3% of the activity inject | 4.8% of the activity inject | 16% of the activity inject | 1.4% of the activity inject | – |
| stannous glucoheptonate | – | – | – | – | – | – | – | acute toxicity level (LD50) [3]: about 1500 mg/kg; sub-acute toxicity [4]: no ill effects; sub-acute toxicity [5]: no untoward effects |
| technetium-99m-stannous-DTPA [Example 7] | 65 | 77 | 32 | 1.0% of the activity inject | 1.1% of the activity inject | 5.0% of the activity inject | 0.3% of the activity inject | Kidney/blood organ uptake contrast ratio ([2]; listed as DTPA): 22 |
| technetium-99m-stannous-glucoheptonate [Example 1] | 44 | 115 | 105 | 1.1% of the activity inject | 5.0% of the activity inject | 18% of the activity inject | 0.7% of the activity inject | total blood activity [6]: less than 2%; injected dose excreted in the urine [7]: about 25%; ratio A: activity per gram of infarcted tissue to activity per gram of normal tissue [8, 9]: 10.3; ratio B: activity per gram of infarcted tissue to activity per gram in the blood [8, 9]: 4.5; ratio A: activity per gram of infarcted tissue to activity per gram of normal tissue [8, 10]: 6.7; ratio B: activity per gram of infarcted tissue to activity per gram in the blood [8, 10]: 3.2; preferential accumulation in infarcted tissue (in words) ([8]; Examples 9 and 10): more effective in preferentially accumulating in infarcted, rather than normal, tissue than the tetracycline infarct agent |
| technetium-99m-stannous-tetracycline [Tetracycline complex, reference compound] | – | – | – | – | – | – | – | ratio A: activity per gram of infarcted tissue to activity per gram of normal tissue [8, 9]: 5.9; ratio A: activity per gram of infarcted tissue to activity per gram of normal tissue [8, 10]: 3.7 |
